Consider 2 compounds from patent US20090306053A1, “Highly selective rho-kinase inhibitor” (priority 2005, published 2009).

What is called IC50 is the point on the concentration scale where inhibition reaches its midpoint.

The target in the assay is T1, Recombinant human AuroraA (Homo sapiens, UniProt O14965).
T1 construct: purchased Upstate
T1 sequence (O14965 1-403): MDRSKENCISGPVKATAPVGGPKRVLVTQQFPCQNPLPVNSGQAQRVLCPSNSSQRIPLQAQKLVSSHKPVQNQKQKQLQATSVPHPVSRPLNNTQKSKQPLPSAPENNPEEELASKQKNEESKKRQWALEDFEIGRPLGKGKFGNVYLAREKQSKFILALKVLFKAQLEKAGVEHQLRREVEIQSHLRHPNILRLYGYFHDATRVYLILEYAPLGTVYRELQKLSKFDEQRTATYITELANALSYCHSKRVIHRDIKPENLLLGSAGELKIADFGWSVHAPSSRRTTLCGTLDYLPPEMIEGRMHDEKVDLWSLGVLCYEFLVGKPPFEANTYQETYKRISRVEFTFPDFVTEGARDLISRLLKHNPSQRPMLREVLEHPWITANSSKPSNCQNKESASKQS
As to the kind of experiment: AuroraA kinase assay (Kinase-Glo ATP consumption). It is filed as biochemical. On the set-up: key to Realative Inhibitory Activity AuroraA: ratio relative to ROCKII-inhibiting activity defined as 1.0 (from IC50s). As to conditions: for IC50: 1 μM ATP, read-out: Kinase Inhibiting Activity (IC50) AuroraA; for Realative Inhibitory Activity AuroraA: relative ratio to ROCKII (=1.0), based on IC50 values. As for the experimental part: Recombinant human AuroraA (Upstate) was used to evaluate its activity to phosphorylate a substrate peptide (LRRASLG, Promega) was evaluated.
In a system of the total volume of 50 μL, the reaction of the above-mentioned enzyme (40 ng) was carried out at room temperature for 80 minutes in the presence of 40 mM of MOPS-NaOH (pH 7.5), 20 mM of magnesium chloride, 200 μM of the above peptide, and 1 μM of ATP. After the kinase reaction, the luminescence intensity corresponding to the amount of ATP in the reaction system was measured using a luciferase reagent (Kinase-Glo Luminescent Kinase Assay kit, Promega) with a chemiluminescence measurement apparatus (MicroLumat, Berthold Technologies). The amount of ATP consumed by the phosphorylation reaction was calculated by comparison with the luminescence intensity in the system when the kinase reaction was not carried out.
With this system, the kinase reaction was carried out in the presence of a compound at various concentrations, and the IC50 value of the compound was determined based on the resulting compound concentration-response curve for ATP consumption.
The ROCKII-inhibiting activity of a compound to be tested was defined as 1.0, and the inhibitory activities of the compound against kinases (PKA, PKG, CaMKII, and AuroraA) other than ROCKII were calculated as relative ratios to the ROCKII-inhibiting activity, based on the IC50 values calculated using the above-described evaluation system.
A general note: Kinase-Glo measures the ATP left after a reaction by luminescence.

For “2-(S)-1-(4-fluoroisoquinoline-5-sulfonyl)-4-glycyl-2-methylhomopiperazine dihydrochloride [Example 1]”, the IC50 was 84.5 µM and the “Realative Inhibitory Activity AuroraA” value came out at 2817.

For `CNCC(=O)N1CCCN(S(=O)(=O)c2cccc3cncc(F)c23)[C@@H](C)C1.Cl.Cl` [Example 2, 2-(S)-1-(4-fluoroisoquinoline-5-sulfonyl)-2-methyl-4-(N-methylglycyl)homopiperazine dihydrochloride], the IC50 stood at 92.2 µM and the “Realative Inhibitory Activity AuroraA” value is greater than 3000.
